# Reference: patent publication US20260284016A1, “COMBINATIONS AND METHODS FOR ENHANCING CHECKPOINT INHIBITOR THERAPIES IN CANCER TREATMENT” (PURDUE RESEARCH FOUNDATION, priority 2004, published 2026)
# Columns and labels:
# [1] = test system: BM-induced mice
# Description: Studies were also performed to determine if macrophages in pulmonary fibrotic lungs might be specifically targeted with folate-linked drugs in vivo. […] (The BM model is widely regarded to be helpful in terms of enabling mechanistic investigations relevant to fibrogenesis in an in vivo context.)
# More specifically, eight-week-old C57BL6 male mice from Charles River (average weight 22 g to 25 g) were housed under pathogen-free conditions at room temperature (22° C.) under a 12 hours light-dark cycle. Mice were placed on a folate deficient chow (Envigo Teklad Global Rat Food Pellets) for 1 week prior to the BM or PBS instillation. Fresh water and folate-deficient diet were freely available. All animal procedures were approved by the Purdue Animal Care and Use Committee in accordance with National Institute of Health guidelines.
# Thereafter, the mice were anesthetized with ketamine/xylazine and the necks of the mice were shaved using hair remover lotion and then sterilized with 70% alcohol. A small incision was made on the neck to visualize the trachea. Mice were positioned at a 75-degree angle and injected intratracheally with 100 μL sterile PBS or BM (Cayman Chemicals, Ann Arbor, MI; #13877) dissolved in PBS (0.75 mg/kg) using a 1 cc syringe with 26 G needle. Body weights were monitored every other day throughout the experiment.
# Lobes of the right lung collected above were weighed, placed in a pressure-tight vial (Supelco Inc., Bellefonte, PA; #27003), and hydrolyzed with 6N HCl (10 ml/g, v/w) in a sand bath at 120° C., for 3.5 hours. The hydrolyzed solution was cooled at 4° C., for 15 min and transferred to a 1.5 ml Eppendorf tube prior to centrifugation at 12,000 rcf for 15 min at 4° C. Supernatant was carefully collected, aliquoted and used for hydroxyproline (HYP) analysis.
# For the subsequent HYP analysis, 10 μl of sample was transferred into a 96-well plate and neutralized with 10 μl of 5.3 M sodium hydroxide solution. Isopropanol ([…]) was then added to each well followed by 20 μl of oxidation buffer and the mixture was incubated on a shaker at room temperature for 5 min. Analytical reagent (260 μl) was added, and the plate was incubated on a shaker at room temperature for 30 seconds and incubated immediately at 60° C., for 25 min. The absorbance was measured at 560 nm (A560) within 15 min. All reagents were prepared according to a previously reported protocol.
# For histological analysis of the lung sections, fixed lungs (see above) were embedded in paraffin, sectioned and stained with hematoxylin-eosin (H&E), Masson's trichrome or F3 (anti-mouse FRβ antibody). Tissue sections were examined in a blinded manner by a licensed pathologist. More than 90×10^6 cells were quantified per section using Aperio-Image Scope (Leica Biosystems, Wetzlar, DE).
# For this, BM-treated mice were intravenously injected every other day beginning on day 10 with either vehicle (3% DMSO in PBS) or Compound 1B (see FIG. 8A). […] In BM-induced experimental pulmonary fibrosis in mice, inflammation is known to persist for about 9-10 days after BM installation. Because, inflammation to fibrosis switch happens in this model approximately day 9 to day 14, and anti-inflammatory markers start appearing at about day 10, dosing began on day 10 (FIG. 8A).
# Two doses were given every other day till day 21. The individual doses on a day are separated by 6 hours to prevent any “tolerance” to TLR agonists. Mice were then sacrificed on day 21 and subjected immediately to bronchoalveolar lavage followed by resection of the lungs for immunohistochemistry and quantitation of collagen and hydroxyproline.
# [2] = test system: BM-induced mice; assay: Bleomycin-induced pulmonary fibrosis, markers in bronchoalveolar lavage cells and fluid; assay type: in vivo, C57BL/6 mice
# Description: Fresh water and folate-deficient diet were freely available.
# After 2 hours, mice were sacrificed using CO2 asphyxiation and an incision in the skin from the abdomen to neck was immediately made to expose the lungs and trachea. A small cut in the upper trachea was then introduced for insertion of a blunted, 22-gauge needle, and a nylon string was tied around the trachea to seal the trachea around the needle. The trachea (containing the inserted needle), lungs and heart were then removed en masse by carefully cutting the connective tissue beneath the lungs, and the bronchus of left lung was clipped with a Dieffenbach vessel clip. The right lung was injected with PBS and aspirated 3 times using a 1 ml syringe, and the recovered lavage fluid was saved on ice.
# Bronchoalveolar lavage fluid (BALF) was then analyzed to determine how the targeted TLR7 agonist works. BALF samples were centrifuged at 1500 rpm for 5 min at 4° C., and the supernatant was aliquoted and stored at −80° C., for cytokine/chemokine analyses. Cell pellets were resuspended and cultured in pre-warmed RPMI 1640 medium for 2 hours and then washed 3x with pre-warmed PBS prior to harvesting for qPCR assay. The right lung was then tied with a nylon string and used for subsequent analysis of hydroxyproline content. The left lung was inflated with 1 ml PBS using the inserted syringe and transferred to 10% formalin solution for subsequent histological analyses.
# CCL18 and IL-1β were quantified in induced THP-1 cell supernatants using a human DuoSet ELISA Development System (R&D Systems Europe, Abingdon, UK: #DY394-05) and an IL-1 beta Human ELISA Kit (Thermo Fisher Scientific, Waltham, MA; #BMS224-2) as described by manufactures. BALF samples were analyzed for mouse IFN-γ using ELISA MAX™ Deluxe (Biolegend, San Diego, CA; #430804).
# [3] = dosing every other day from day 10, BALF day 21
smiles,measurement,setting,value
CCCCc1nc2c(N)nc3ccccc3c2n1CC(C)(C)OC(=O)OCCSSCC(NC(=O)CCC(NC(=O)c1ccc(NCc2cnc3nc(N)[nH]c(=O)c3n2)cc1)C(=O)O)C(=O)O (stereo not shown) [Compound 1B],order of efficacy on lung hydroxyproline content,"[1]; 0, 1, 3, or 10 nmol/mouse, day 21",10 nmol/mouse>3 nmol/mouse>1 nmol/mouse>0 nmol/mouse
same,lung histology with rising dose,"[1]; 0, 1, 3, or 10 nmoles",lung histology improved
same,weight loss across doses,"[1]; 0, 1, 3, or 10 nmoles every other day from day 10",no difference in weight loss
same,"response in lung sections (DAPI, anti-F4/80, anti-CD206 staining)",[1]; healthy and fibrotic lungs,robust anti-fibrotic and proinflammatory response
same,"collagen stain, Masson's trichrome","[1]; tail vein injection, treatment from day 10",strongly suppressed
same,"lung architecture, H&E staining",[1]; treatment from day 10,resembles that of healthy mice
same,total number of BALF cells,[2]; different doses of Compound 1B,decreased in a dose-dependent manner
same,"Arg1 (qPCR, lavage macrophages)",[2]; [3],suppressed
same,CD86 transcripts (qPCR),[2]; [3],elevated
same,IFN-γ concentration (ELISA of lavage fluid),[2]; [3],elevated
same,IRAK-4,[2]; [3],upregulation
same,"MMP9 (qPCR, lavage macrophages)",[2]; [3],suppressed
same,"TIMP 3 (qPCR, lavage macrophages)",[2]; [3],suppressed
